This assay concerns the target T1, mOREG olfactory receptor (Olfr73) (Mus musculus, UniProt Q920P2).
T1 construct: gene Or5d18; N-terminal fusion with the first 20 amino acids of rhodopsin (Rho20-mOREG); untagged mOREG also measured
T1 sequence (Q920P2 1-313): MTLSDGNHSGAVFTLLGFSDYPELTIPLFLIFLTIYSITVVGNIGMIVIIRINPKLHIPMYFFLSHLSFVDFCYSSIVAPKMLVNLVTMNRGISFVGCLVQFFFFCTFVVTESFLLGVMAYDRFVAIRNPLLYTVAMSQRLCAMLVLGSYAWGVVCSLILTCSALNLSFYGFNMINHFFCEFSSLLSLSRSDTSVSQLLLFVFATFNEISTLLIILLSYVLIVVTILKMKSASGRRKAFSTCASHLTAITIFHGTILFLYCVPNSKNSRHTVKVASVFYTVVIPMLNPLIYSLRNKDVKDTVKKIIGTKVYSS
The experiment in a line: calcium imaging (fluo-4) in HEK293 cells co-expressing Rho-mOREG and olfactory CNG channel. It counts as cell-based. From the text: calcium imaging (fluo-4) in HEK293 cells co-expressing Rho-mOREG and olfactory CNG channel on mOREG olfactory receptor (Olfr73) | Responses to eugenol, a ligand for mOREG, were detected in cells co-expressing Rho-mOREG and CNG

Broadly, the EC50 is the concentration at which the effect is half-maximal.

On to `C=CCc1ccc(O)c(OC)c1` [eugenol], for which the EC50 worked out at 20.8 µM.

(Values after article PMC520810, “Endoplasmic reticulum degradation impedes olfactory G-protein coupled receptor functional expression” (BMC Cell Biology, 2004).)
